This passage reports AFI results from ChEMBL document CHEMBL3045980, “Chemistry of insect antifeedants from Azadirachta indica (part 11): Characterisation and structure activity relationships of some novel rearranged azadirachtins” (1991).

The subject of assay [1] is Spodoptera littoralis. The assay can be described thus: Antifeedant activity against final stadium larval stage of Spodoptera littoralis in compound pretreated glass fibre disks assessed as mass of disks eaten at 1 ppm by choice bioassay. Format: functional.
Assay [2] has as its system Spodoptera littoralis. As to the kind of experiment: Antifeedant activity against final stadium larval stage of Spodoptera littoralis in compound pretreated glass fibre disks assessed as mass of disks eaten at 10 ppm by choice bioassay. The format is functional.

For `C/C=C(\C)C(=O)O[C@H]1C[C@@H](OC(C)=O)[C@@]2(C(=O)OC)CO[C@H]3[C@H]4O[C@]5(C)[C@H](C6=CCOC6=O)C[C@H](O)[C@]5(O)[C@@]4(C)[C@H]4[C@]1(CO[C@]4(O)C(=O)OC)[C@@H]32`, the AFI stood at 41% in assay [1] and 64% in assay [2].
Consider `C/C=C(\C)C(=O)O[C@H]1C[C@@H](O)[C@@]23CO[C@@H]4[C@@H](O)[C@]5(C)[C@@H]([C@]1(COC2=O)[C@@H]43)[C@](O)(C(=O)OC)O[C@@]51[C@H]2C[C@H]3[C@]4(C=CO[C@H]4O2)O[C@]31C`, for which the AFI in assay [1] amounted to 22%; in assay [2], 16%.
On the same counts, the results for `C/C=C(\C)C(=O)O[C@H]1C[C@@H](OC(C)=O)[C@@]2(C(=O)OC)CO[C@H]3[C@@H](O)[C@@](C)([C@]45O[C@@]4(C)[C@H]4C[C@@H]5O[C@@H]5OCC[C@@]54O)[C@@H]4[C@@](OC)(C(=O)OC)OC[C@@]14[C@@H]32` are 100% and 100%.
On the same counts, the results for `CCC(C)C(=O)O[C@H]1C[C@@H](OC(C)=O)[C@@]2(C(=O)OC)CO[C@H]3[C@@H](O)[C@@](C)([C@]45O[C@@]4(C)[C@H]4C[C@@H]5O[C@@H]5OCC[C@@]54O)[C@@H]4[C@@](OC)(C(=O)OC)OC[C@@]14[C@@H]32` (some centres undefined) are 98% and 100%.
The like results for `C/C=C(\C)C(=O)O[C@H]1C[C@@H](OC(C)=O)[C@@]2(C(=O)OC)CO[C@H]3C(=O)[C@@](C)([C@]45O[C@@]4(C)[C@H]4C[C@@H]5O[C@@H]5OCC[C@@]54O)[C@@H]4[C@@](OC)(C(=O)OC)OC[C@@]14[C@@H]32` were, in that order, 26% and 100%.
`C/C=C(\C)C(=O)O[C@H]1C[C@@H](OC(C)=O)[C@@]2(C(=O)OC)CO[C@@H]3[C@@H]2[C@]12CO[C@](OC)(C(=O)OC)[C@H]2[C@](C)([C@]12O[C@@]1(C)[C@H]1C[C@@H]2O[C@@H]2OCC[C@@]21O)[C@H]3O`: the AFI in assay [1] is reported as 35%; in assay [2] it was 46%.
On the same counts, the results for `C/C=C(\C)C(=O)O[C@H]1C[C@@H](OC(C)=O)[C@@]2(C(=O)OC)CO[C@H]3C(=O)[C@@](C)([C@]45O[C@@]4(C)[C@H]4C[C@@H]5OC(=O)OCCC4=O)[C@@H]4[C@@](OC)(C(=O)OC)OC[C@@]14[C@@H]32` are 61% and 63%.
The like results for `C/C=C(\C)C(=O)O[C@H]1C[C@@H](OC(C)=O)[C@@]2(C(=O)OC)CO[C@H]3[C@@H](O)[C@@](C)([C@]45O[C@@]4(C)[C@H]4C[C@@H]5O[C@@H]5OCC[C@@]54OC)[C@@H]4[C@@](OC)(C(=O)OC)OC[C@@]14[C@@H]32` were, in that order, 66% and 95%.
`C/C=C(\C)C(=O)O[C@H]1C[C@@H](OC(C)=O)[C@@]2(C(=O)OC)CO[C@H]3C(=O)[C@@](C)([C@]45O[C@@]4(C)[C@H]4C[C@@H]5O[C@@H]5OCC[C@@]54OC)[C@@H]4[C@@](OC)(C(=O)OC)OC[C@@]14[C@@H]32`: the figures for the AFI in assay [1] and in assay [2] were 29% and 100%, respectively.
Take `C/C=C(\C)C(=O)O[C@H]1C[C@@H](OC(C)=O)[C@@]2(C(=O)OC)CO[C@@H]3[C@@H]2[C@]12CO[C@](OC)(C(=O)OC)[C@H]2[C@@]1(C)[C@@]32O[C@H]3C[C@@H]([C@@]4(OC)CCO[C@@H]4OC)[C@@](C)(O2)[C@]31O`: the values for the AFI in assay [1] and in assay [2] were 33% and 31%, respectively.
As to `C/C=C(\C)C(=O)O[C@H]1C[C@@H](OC(C)=O)[C@@]2(C(=O)OC)CO[C@H]3C(=O)[C@@](C)([C@]45O[C@@]4(C)[C@H]4C[C@@H]5O[C@@H]5OC=C[C@@]54O)[C@H]4[C@]1(CO[C@]4(O)C(=O)OC)[C@@H]32` [7-KETOAZADIRACHTIN], the AFI is 21% in assay [1] and 23% in assay [2].
The like results for `C/C=C(\C)C(=O)O[C@H]1C[C@@H](OC(C)=O)[C@@]2(C(=O)OC)CO[C@H]3[C@@H](O)[C@@](C)([C@]45O[C@@]4(C)[C@@H]4C[C@H]5O[C@@H]5OC=C[C@@]54O)[C@H]4[C@]1(CO[C@]4(O)C(=O)OC)[C@@H]32` [AZADIRACHTIN A] were, in that order, 99% and 100%.
